In patent US8314253B2, “Bridged tetrahydronaphthalene derivatives” (Actelion Pharmaceuticals Ltd., priority 2008, dated 2012):
pIC50: −log10 of the molar value.

System: human Cav3.1 Cav3.2 or Cav3.3 channel
Experiment: In vitro assay T channel (FLIPR, Ca2+-induced fluorescence)
Type: cell-based
Conditions: HEK293 cells expressing human Cav3.1 Cav3.2 or Cav3.3; 10 mM Ca2+; determined up to 10 μM; read-out: T channel antagonistic activity IC50
Protocol: Human embryonic kidney (HEK293) cells expressing the human Cav3.1 Cav3.2 or Cav3.3 channel, respectively, are grown in culture medium (DMEM containing 10% heat-inactivated fetal calf serum (FCS), 100 U/ml penicillin, 100 μg/ml streptomycin and 1 mg/ml G418). The cells are seeded at 20.000 cells/well into 384-well black clear bottom sterile plates (poly-L-lysine-coated, Becton Dickinson). The seeded plates are incubated overnight at 37° C. in 5% CO2. The Ca^2+ solution is prepared as 100 mM stock solution in 100 mM tetraethylammoniumchloride (TEA-chloride), 50 mM HEPES, 2.5 mM CaCl2, 5 mM KCl, 1 mM MgCl2, adjusted to pH 7.2 with TEA-hydroxide, for use in the assay at a final concentration of 10 mM. […] Fluorescence is measured for each well at 2 second intervals for 8 minutes, and the area under the curve of each fluorescence peak is compared to the area of the fluorescence peak induced by 10 mM Ca^2+ with vehicle in place of antagonist.

Structure (SMILES)	pIC50
CN(CCCc1nc2ccccc2[nH]1)CCC1(O)CC2CCC1c1ccccc12 (single isomer, unassigned) [Example 3, (1S,8S,9S)-9-(2-{[3-(1H-Benzoimidazol-2-yl)-propyl]-methyl-amino}-ethyl)-tricyclo[6.2.2.0^2,7]dodeca-2,4,6-trien-9-ol or (1R,8R,9R)-9-(2-{[3-(1H-benzoimidazol-2-yl)-propyl]-methyl-amino}-ethyl)-tricyclo[6.2.2.0^2,7]dodeca-2,4,6-trien-9-ol]	5.65
CN(CCCc1nc2ccccc2[nH]1)CC[C@]1(O)C[C@H]2CC[C@@H]1c1ccccc12 (relative stereo) [Example 1, rac-(1R*,8R*,9R*)-9-(2-{[3-(1H-Benzoimidazol-2-yl)-propyl]-methyl-amino}-ethyl)-tricyclo[6.2.2.0^2,7]dodeca-2,4,6-trien-9-ol]	5.55
CN(CCCc1nc2ccccc2[nH]1)CCC1(O)CC2CCC1c1ccccc12 (single isomer, unassigned) [Example 2, (1S,8S,9S)-9-(2-{[3-(1H-Benzoimidazol-2-yl)-propyl]-methyl-amino}-ethyl)-tricyclo[6.2.2.0^2,7]dodeca-2,4,6-trien-9-ol or (1R,8R,9R)-9-(2-{[3-(1H-benzoimidazol-2-yl)-propyl]-methyl-amino}-ethyl)-tricyclo[6.2.2.0^2,7]dodeca-2,4,6-trien-9-ol]	5.54
CN(CCCc1nc2ccccc2[nH]1)CC[C@@]1(O)C[C@H]2CC[C@@H]1c1ccccc12 (relative stereo) [Example 5, rac-(1R*,8R*,9S*)-9-(2-{[3-(1H-Benzoimidazol-2-yl)-propyl]-methyl-amino}-ethyl)-tricyclo[6.2.2.0^2,7]dodeca-2,4,6-trien-9-ol]	< 5.00
CC(C)C(=O)O[C@@]1(CCN2CCC(c3nc4ccccc4[nH]3)CC2)C[C@H]2CC[C@@H]1c1ccccc12 (relative stereo) [Example 6A, rac-Isobutyric acid (1R*,8R*,9R*)-9-{2-[4-(1H-benzoimidazol-2-yl)-piperidin-1-yl]-ethyl}-tricyclo[6.2.2.0^2,7]dodeca-2,4,6-trien-9-yl ester]	6.12
COc1ccc(C)c2[nH]c(CCCN(C)CC[C@@]3(OC(=O)CC(F)(F)F)C[C@@H]4CCC[C@H]3c3ccccc34)nc12 [Example 14B, 3,3,3-Trifluoro-propionic acid (1S,8S,12S)-12-(2-{[3-(4-methoxy-7-methyl-1H-benzoimidazol-2-yl)-propyl]-methyl-amino}-ethyl)-tricyclo[6.3.2.0^2,7]trideca-2,4,6-trien-12-yl ester or 3,3,3-trifluoro-propionic acid (1R,8R,12R)-12-(2-{[3-(4-methoxy-7-methyl-1H-benzoimidazol-2-yl)-propyl]-methyl-amino}-ethyl)-tricyclo[6.3.2.0^2,7]trideca-2,4,6-trien-12-yl ester]	6.29
CC(C)C(=O)OC1(CCN(C)CCCc2nc3ccccc3[nH]2)CC2CCC1c1ccccc12 [Example 2A, Isobutyric acid (1S,8S,9S)-9-(2-{[3-(1H-benzoimidazol-2-yl)-propyl]-methyl-amino}-ethyl)-tricyclo[6.2.2.0^2,7]dodeca-2,4,6-trien-9-yl ester or isobutyric acid (1R,8R,9R)-9-(2-{[3-(1H-benzoimidazol-2-yl)-propyl]-methyl-amino}-ethyl)-tricyclo[6.2.2.0^2,7]dodeca-2,4,6-trien-9-yl ester]	5.75
O[C@@]1(CCN2CCC(c3ccccc3)(c3nc4ccccc4[nH]3)CC2)C[C@H]2CC[C@@H]1c1ccccc12 (relative stereo) [Example 8, rac-(1R*,8R*,9R*)-9-{2-[4-(1H-Benzoimidazol-2-yl)-4-phenyl-piperidin-1-yl]-ethyl}-tricyclo[6.2.2.0^2,7]dodeca-2,4,6-trien-9-ol]	6.02
COCC(=O)O[C@@]1(CCN(C)CCCc2nc3ccccc3[nH]2)C[C@H]2CCC[C@@H]1c1ccccc12 (relative stereo) [Example 10A, rac-Methoxy-acetic acid (1R*,8R*,12R*)-12-(2-{[3-(1H-benzoimidazol-2-yl)-propyl]-methyl-amino}-ethyl)-tricyclo[6.3.2.0^2,7]trideca-2,4,6-trien-12-yl ester]	6.09
COc1ccc(C)c2[nH]c(CCCN(C)CCC3(OC(=O)C(C)C)CC4CCCC3c3ccccc34)nc12 [Example 14A, Isobutyric acid (1S,8S,12S)-12-(2-{[3-(4-Methoxy-7-methyl-1H-benzoimidazol-2-yl)-propyl]-methyl-amino}-ethyl)-tricyclo[6.3.2.0^2,7]trideca-2,4,6-trien-12-yl ester or isobutyric acid (1R,8R,12R)-12-(2-{[3-(4-methoxy-7-methyl-1H-benzoimidazol-2-yl)-propyl]-methyl-amino}-ethyl)-tricyclo[6.3.2.0^2,7]trideca-2,4,6-trien-12-yl ester]	6.72
COCC(=O)O[C@@]1(CCN(C)CCCc2nc3ccccc3[nH]2)C[C@H]2CC[C@@H]1c1ccccc12 (relative stereo) [Example 1A, rac-Methoxy-acetic acid (1R*,8R*,9R*)-9-(2-{[3-(1H-benzoimidazol-2-yl)-propyl]-methyl-amino}-ethyl)-tricyclo[6.2.2.0^2,7]dodeca-2,4,6-trien-9-yl ester]	5.82
CN(CCCc1nc2ccccc2[nH]1)CCC1(O)CC2CCCC1c1ccccc12 (single isomer, unassigned) [Example 11, (1S,8S,12S)-12-(2-{[3-(1H-Benzoimidazol-2-yl)-propyl]-methyl-amino}-ethyl)-tricyclo[6.3.2.0^2,7]trideca-2,4,6-trien-12-ol or (1R,8R,12R)-12-(2-{[3-(1H-benzoimidazol-2-yl)-propyl]-methyl-amino}-ethyl)-tricyclo[6.3.2.0^2,7]trideca-2,4,6-trien-12-ol]	6.28
CN(CCCc1nc2ccccc2[nH]1)CC[C@]1(O)C[C@H]2CCC[C@@H]1c1ccccc12 (relative stereo) [Example 10, rac-(1R*,8R*,12R*)-12-(2-{[3-(1H-Benzoimidazol-2-yl)-propyl]-methyl-amino}-ethyl)-tricyclo[6.3.2.0^2,7]trideca-2,4,6-trien-12-ol]	5.80
CC(C)C(=O)OC1(CCN(C)CCCc2nc3ccccc3[nH]2)CC2CCCC1c1ccccc12 [Example 12A, Isobutyric acid (1S,8S,12S)-12-(2-{[3-(1H-Benzoimidazol-2-yl)-propyl]-methyl-amino}-ethyl)-tricyclo[6.3.2.0^2,7]trideca-2,4,6-trien-12-yl ester or isobutyric acid (1R,8R,12R)-12-(2-{[3-(1H-benzoimidazol-2-yl)-propyl]-methyl-amino}-ethyl)-tricyclo[6.3.2.0^2,7]trideca-2,4,6-trien-12-yl ester]	6.11
CN(CCCc1nc2ccccc2[nH]1)CC[C@]1(O)C[C@H]2CC[C@@H]1c1cc(F)c(F)cc12 (relative stereo) [Example 9, rac-(1R*,8R*,9R*)-9-(2-{[3-(1H-Benzoimidazol-2-yl)-propyl]-methyl-amino}-ethyl)-4,5-difluoro-tricyclo[6.2.2.0^2,7]dodeca-2,4,6-trien-9-ol]	5.73
